Patent publication US20080009435A1, “Synthetic methods for aplidine and new antitumoral derivatives, methods of making and using them” (Pharma Mar, S.A., a Spain corporation, priority 2000, published 2008)
*1 amine or outer side, *2 acyl side, *3 side chain or, on linkers, in order; H or OH if unused. Where a SMILES comes first, the peptide text is derived from it. Bridges are numbered along the chain shown (N, C = ends). [ ]: non-standard residue; d: D form. The star is where a group is joined. X2 = CC[C@H](C)[C@@H](N[*:1])[C@@H](O)CC(=O)[*:2]; NMeY = CN[C@@H](Cc1ccc(O)cc1)C(=O)O; dNMeL = CN[C@H](CC(C)C)C(=O)O; Hiv = CC(C)[C@H](O)C(=O)O; Pyruvoyl = CC(=O)C(=O)*

Legend:
MEL-28 human melanoma = assay: Cytotoxicity IC50 (after Berjeron et al); conditions: Homo sapiens, SK-MEL-28, read-out: Cytotoxicity of [aa3]-aplidine Congeners IC50 (Molar) MEL28
Excerpt: (§1) Methodology: after Berjeron et al, Biochem and Bioph Res. Comm., 1984, 121, 3, 848-854.
(§2) P388=Murine lymphoma. A549=human lung carcinoma. HT-29=human colon carcinoma. MEL-28=human melanoma.
(§3) A549=human lung carcinoma. HT-29=human colon carcinoma. MEL-28=human melanoma.

Mel-28 (Melanoma) = assay: IC50 Aplidine Family panel (MTS); format: cell-based; conditions: Homo sapiens, SK-MEL-28; MTS (new); read-out: IC50 (Molar) Melanoma Mel-28
FADU (Pharynx) = assay: IC50 Aplidine Family panel (MTT/MTS); format: cell-based; conditions: Homo sapiens, FaDu; MTS (new); read-out: IC50 (Molar) Pharynx FADU
HT-29 (Colon) = assay: IC50 Aplidine Family panel (MTT/MTS); format: cell-based, human; conditions: Homo sapiens, HT-29; MTS (new); read-out: IC50 (Molar) Colon HT-29
[1] = test system: A549 human lung carcinoma; assay: Cytotoxicity IC50 (after Berjeron et al); conditions: Homo sapiens, A549, read-out: Cytotoxicity of [aa3]-aplidine Congeners IC50 (Molar) A549
Excerpt: as §1, §2, §3

CHSA (Chondrosarcoma) = assay: IC50 Aplidine Family panel (MTS); format: cell-based; conditions: MTS (new); read-out: IC50 (Molar) Chondrosarcoma CHSA
P388 Murine lymphoma = assay: Cytotoxicity IC50 (after Berjeron et al); conditions: Mus musculus, P388, read-out: Cytotoxicity of [aa3]-aplidine Congeners IC50 (Molar) P388
Excerpt: as §1, §2, §3

OSA-FH (Osteosarcoma) = assay: IC50 Aplidine Family panel (MTS); format: cell-based; conditions: MTS (new); read-out: IC50 (Molar) Osteosarcoma OSA-FH
SK-HEP-1 (Liver) = assay: IC50 Aplidine Family panel (MTT/MTS); format: cell-based; conditions: Homo sapiens, SK-HEP1; MTS (new); read-out: IC50 (Molar) Liver SK-HEP-1
5637 (Bladder) = assay: IC50 Aplidine Family panel (MTT/MTS); format: cell-based; conditions: MTS (new); read-out: IC50 (Molar) Bladder 5637
[2] = test system: HT-29 human colon carcinoma; assay: Cytotoxicity IC50 (after Berjeron et al); conditions: Homo sapiens, HT-29, read-out: Cytotoxicity of [aa3]-aplidine Congeners IC50 (Molar) HT29
Excerpt: as §1, §2, §3

[3] = test system: K562 (CML, Chronic myelogenous); assay: IC50 Aplidine Family panel (MTT/MTS); format: cell-based; conditions: Homo sapiens, K562; MTS (new); read-out: IC50 (Molar) CML (Chronic myelogenous) K562
Hs746t (Gastric) = assay: IC50 Aplidine Family panel (MTT/MTS); format: cell-based; conditions: Homo sapiens, Hs746T; MTS (new); read-out: IC50 (Molar) Gastric Hs746t
[4] = test system: solid tumors like colon, chondrosarcoma and osteosarcoma; assay: MTS assay, specificity against solid tumors; format: cell-based; conditions: with respect to didemnin B (III)
[5] = test system: MC116 (Lymphoma, undifferentiated); assay: IC50 Aplidine Family panel (MTT/MTS); format: cell-based; conditions: Homo sapiens, MC116; MTS (new); read-out: IC50 (Molar) Lymphoma (undifferentiated) MC116
[6] = test system: Molt 3 (ALL, Acute lymphobalstic); assay: IC50 Aplidine Family panel (MTT/MTS); format: cell-based; conditions: Homo sapiens, MOLT-3; MTS (new); read-out: IC50 (Molar) ALL (Acute lymphobalstic) Molt 3
LNCAP (Prostate) = assay: IC50 Aplidine Family panel (MTS); format: cell-based; conditions: Homo sapiens, MTS (new), read-out: IC50 (Molar) Prostate LNCAP
tumor cells = assay: In vitro antitumor activity; format: cell-based
NCI 60 cell panel = conditions: cited from earlier work
pancreatic carcinoma = conditions: compared with III (didemnin B); cited from earlier work
protein biosynthesis = conditions: compared with III (didemnin B); cited from earlier work
[7] = test system: tumor cells (clonogenic assays); conditions: compared with III (didemnin B); cited from earlier work

**Q.** For `CC[C@H](C)[C@H]1NC(=O)[C@@H](NC(=O)[C@@H](CC(C)C)N(C)C(=O)[C@@H]2CCCN2C(=O)C(C)=O)[C@@H](C)OC(=O)[C@H](Cc2ccc(OC)cc2)N(C)C(=O)[C@@H]2CCCN2C(=O)[C@H](CC(C)C)NC(=O)[C@H](C(C)C)OC(=O)C[C@@H]1O` [SHPL1, [Hiv]^3-Aplidine] (Pyruvoyl-P[dNMeL]T[X2][Hiv]LP[NMeY](Me); ester 3-C), which IC50 (MEL-28 human melanoma) is on record?
**A.** 0.474 nM

**Q.** And the IC50 (Mel-28 (Melanoma))?
**A.** 486 nM

**Q.** And the IC50 (FADU (Pharynx))?
**A.** 37.1 nM

**Q.** And the IC50 (HT-29 (Colon))?
**A.** 10.2 nM

**Q.** And the IC50 [1]?
**A.** 0.474 nM

**Q.** And the IC50 (CHSA (Chondrosarcoma))?
**A.** 3.45 nM

**Q.** And the IC50 (P388 Murine lymphoma)?
**A.** 0.474 nM

**Q.** What about the IC50 (OSA-FH (Osteosarcoma)) of the same compound?
**A.** 5.89 nM

**Q.** And the IC50 (SK-HEP-1 (Liver))?
**A.** 265 nM

**Q.** What about the IC50 (5637 (Bladder)) of the same compound?
**A.** 90.2 nM

**Q.** And the IC50 [2]?
**A.** 0.474 nM

**Q.** What about the IC50 [3] of the same compound?
**A.** 521 nM

**Q.** And the IC50 (Hs746t (Gastric))?
**A.** 71.6 nM

**Q.** What about the “specificity against solid tumors in the MTS assay” value [4] of the same compound?
**A.** more specific against solid tumors like colon, chondrosarcoma and osteosarcoma

**Q.** And the IC50 [5]?
**A.** 382 nM

**Q.** And the IC50 [6]?
**A.** 17.7 nM

**Q.** And the IC50 (LNCAP (Prostate))?
**A.** 14.6 nM

**Q.** Which IC50 (MEL-28 human melanoma) does the source give for `CC[C@H](C)[C@H]1NC(=O)[C@@H](NC(=O)[C@@H](CC(C)C)N(C)C(=O)[C@@H]2CCCN2C(=O)C(C)=O)[C@@H](C)OC(=O)[C@H](Cc2ccc(OC)cc2)N(C)C(=O)[C@@H]2CCCN2C(=O)[C@H](CC(C)C)NC(=O)[C@H](C(C)C)NC(=O)C[C@@H]1O` [SVPL1, [Val]^3-Aplidine] (Pyruvoyl-P[dNMeL]T[X2]VLP[NMeY](Me); ester 3-C) here?
**A.** 0.113 nM

**Q.** And the IC50 [1]?
**A.** 0.113 nM

**Q.** What about the IC50 (P388 Murine lymphoma) of the same compound?
**A.** 0.113 nM

**Q.** And the IC50 [2]?
**A.** 0.113 nM

**Q.** And the “in vitro antitumor activity” value (tumor cells)?
**A.** high level of in vitro antitumor activity

**Q.** What does the source list for [Hiv]^3-[L-Lac]^9-aplidine [9LSHPL1(L)]?
**A.** tumor type specificity in NCI 60 cell panel (NCI 60 cell panel): does not show any tumor type specificity; in vitro activity against pancreatic carcinoma (pancreatic carcinoma): somewhat more active in vitro than III; protein biosynthesis inhibition properties (protein biosynthesis): retains similar levels; in vitro antitumor activity in clonogenic assays [7]: retains similar levels of in vitro antitumor activity
